Consider one compound from patent US9492546B2, “Use of bethanechol for treatment of Xerostomia” (Acacia Pharma Limited, priority 2011, dated 2016).

One data set relates to healthy volunteers. Nature of the data set: Phase 1 study, formulation applied topically to the oral mucosa. The data set is classed as in vivo, human. The conditions noted are these: oral and oromucosal. On the procedure: In a Phase 1 study involving four healthy volunteers, Formulation 14C applied topically to the oral mucosa at doses up to 20 mg, kept in situ for two minutes.
This local absorption is likely to deliver enough bethanechol to the minor salivary glands, numbering in the hundreds to thousands and located immediately below the oral mucosa, to stimulate them to produce mucin-rich saliva which is disproportionately important for ensuring a comfortable month feel. When added to the salivary stimulation achieved by oral ingestion of bethanechol, it may reasonably be concluded that the formulation can produce better relief from xerostomia, with fewer side-effects, than purely systemic dosing of bethanechol.

The conditions of data set [1]: cited from earlier work.
For data set [2] the following is noted: cited from earlier work. The source holds these as a separate data set.
For data set [3], the system named is New Zealand White rabbits. Kind of data set: Heart rate in anaesthetised rabbits, topical formulations versus IV bethanechol. The following applies: range of doses. It is filed as in vivo, rabbit. The source says:
More specifically, adult male New Zealand White rabbits, of approximate body weight 2.0 to 3 kg, were allocated in groups of three to be treated with formulations of bethanechol given in Table 1, designated 2, 6, 9 and 14C, along with each of their matching placebos. Animals were anaesthetised with urethane, administered IP, and heart rate was monitored via ECG leads. They were placed in the prone position after being anaesthetised (this inhibits the drug from entering the GI tract). Salivation was measured by inserting pre-weighed cotton wool balls into the oral cavity, removing after five or ten minutes and weighing. The difference in weight provided an estimate of salivary flow.
At the end of the experiment, one animal from each group was given bethanechol intravenously at a range of doses, in order to produce a dose-response curve for heart rate. This was compared to the effect of the active formulations, when given topically, on heart rate.

Another data set deals with patients with xerostomia. The conditions noted are these: administered orally, small number of clinical studies; cited from earlier work.
The next data set relates to rabbits. Kind of data set: Blood pressure and heart rate in anaesthetised rabbits (separate experiment). The data set is classed as in vivo, rabbit. The following applies: intravenous, dose-related at 30, 100 and 300 μg/kg. The source says:
In a further, separate experiment, formulation 14C and its matching placebo were given to 3 anaesthetised rabbits in which blood pressure, via an indwelling cannula in the carotid artery, was monitored, along with heart rate.

In the case of `CC(C[N+](C)(C)C)OC(N)=O` (centres unmarked) [bethanechol chloride, Bethanechol chloride], the “Pharmacokinetics (linearity)” value in the data set on healthy volunteers is recorded as “linear”. The aqueous solubility result in data set [1] is recorded as “high”. Further, the “Penetration into the CNS” value in data set [2] (at therapeutic doses) is listed as “does not significantly penetrate into the CNS”. For the same compound, the “Absorption from the GI tract” value in data set [2] (in vivo) is “only poorly absorbed”. Further, the “Effect on heart rate” value in data set [3] was “marked and dose-dependent bradycardia”. The Salivary flow result in the data set with patients with xerostomia is given as “increase salivary flow”. Moreover, in the data set with rabbits, the “Effect on blood pressure” value is “reduced” and the “Effect on heart rate” value is “reduced”.
